Key:
Type in all cases: biochemical
[1] = system: Vent™ DNA polymerase; experiment: Thermostable DNA polymerase primer extension, Vent; design: key to result of incorporation (termination / further chain extension): T: Incorporation results in termination; E: Incorporation permits further chain extension; T/E: Predominant product is primer extended by one base, but evidence of some further extension also observed; conditions: DNA template, 45° C. for 20–40 minutes; for primer extended by at least one base within assay time (grade): TTP replaced entirely by test compound
Experimental: (§1) DNA polymerase assays were performed using Sequence 1 as primer and Sequence 2 as template. • Sequence 1 5′[Cy3]TAACTCATTAACAGGATC 3′ • Sequence 2 5′AT TCGCGGTATTCTGGTATGAAGCTTTTAGATCCTGTTAATGAGTTA GTA3′
(§2) The template (Sequence 2) was designed such that the base (underlined) immediately adjacent to the 3′ end of the hybridised primer is complementary to the nucleotide test compound. Nucleotide test compounds were compounds (6) (4′-C-(glycylaminomethyl)thymidine triphosphate), (8) (4′-C-(N-trifluoroacetyaminomethyl)thymidine triphosphate) and (9) (4′-C-(aminomethyl)thymidine triphosphate) as described above.
(§3) Primer extension reactions were performed using the above primers in the presence of 40 to 80 μM of nucleotide triphosphates. Positive control reactions contained all four native nucleotide triphosphates. For the other reactions the TTP was replaced with either a 2:1 ratio of […] for the terminator control, or entirely by the test compound The enzymes were used at a final concentration of 0.175 units/μl and a magnesium ion concentration of 2.5 mM in buffers supplied by the manufacturer. The primer and template concentrations were 0.5 pmol/μl and 2 pmol/μl respectively.
(§4) Extension reactions with thermophilic enzymes were performed by initially denaturing the fully assembled reactions at 70° C. for 5 min. followed by 45° C. for 20–40 minutes. The following enzymes were used: Taq DNA polymerase (Taq); Thermosequenase (TS); Thermosequenase II (TSII); Thermosequenase E (TSE), Tfl DNA polymerase (Tfl); Tth DNA polymerase (Tth), deltaTts DNA polymerase (deltaTts), deltaTts D DNA polymerase (dettaTTSD) (all from APBiotech); Pfu DNA polymerase (Pfu) (Stratagene Ltd); Vent™ DNA polymerase (Vent) (New England Biolabs).
(§5) The reactions were stopped by adding a 0.5 volume aliquot of 80% formamide containing 0.1% (w/v) bromophenol blue and 0.1% (w/v) cresol blue. The reaction products were separated by denaturing gel electrophoresis at a constant power of 45 W on 16% polyacrylamide gels containing 50% urea.
(§6) Gels were scanned for Cy3 fluorescence on a Molecular Dynamics Fluorimager and the data analysed using Molecular Dynamics ImageQuant 5 software.
(§7) The incorporation of a test nucleotide triphosphate results in the appearance on a polyacrylamide gel of a single band corresponding to a single base extension product. If, however, the enzyme adds additional bases then further bands would be observed that corresponded to either the full-length product or positions of other complementary bases in the template.

[2] = system: Thermosequenase E; experiment: Thermostable DNA polymerase primer extension, TSE; design: key to result of incorporation (termination / further chain extension): T: Incorporation results in termination; E: Incorporation permits further chain extension; T/E: Predominant product is primer extended by one base, but evidence of some further extension also observed; conditions: DNA template, 45° C. for 20–40 minutes; for primer extended by at least one base within assay time (grade): TTP replaced entirely by test compound
Experimental: as §1, §2, §3, §4, §5, §6, §7

[3] = target: T1, MuLV RT (Moloney murine leukemia virus, UniProt P03355); experiment: Mesophilic reverse transcriptase reaction, MuLV RT; design: key to result of incorporation (termination / further chain extension): T: Incorporation results in termination; E: Incorporation permits further chain extension; T/E: Predominant product is primer extended by one base, but evidence of some further extension also observed; conditions: RNA template, final enzyme concentration of 4 units/μl
T1 construct: MuLv Reverse transcriptase or HIV reverse transcriptase; purchased APBiotech
Experimental: as §1, §2, §3
(§8) Extension reactions preformed with mesophilic polymerases were carried out by mixing all the components of the reaction except the enzyme and heating to 70° C. for 5 min. After the reactions had cooled to room temperature 0.175 units of the enzyme were added and the reactions heated to 37° C. for 20–40 minutes. The following enzymes were used: T7 DNA polymerase (T7); Sequenase 2™ (Seq); Klenow fragment of DNA polymerase 1 (Klen); phi-29 DNA polymerase (Phi-29); T4 DNA polymerase (T4) (all from AP Biotech) and Bst DNA polymerase (Bst) (Cambio Ltd).
(§9) Reverse transcriptase reactions were performed essentially as described above for thermophilic and mesophilic enzymes. The template for these reactions was the RNA equivalent of sequence 2. All the thermophilic enzymes were assayed in Tth reaction buffer (Cambio Ltd, Cambridge UK) containing 2.5 mM Manganese ions. The following enzymes were used: Thermosequenase (TS1); Thermosequenase II (TSII); delta Tts DNA polymerase (deltaTts); delta Tts D DNA polymerase (deltaTtsD) (all from APBiotech); Retrotherm reverse transcriptase (Retroth) (Cambio Ltd); Tth DNA polymerase (Tth) (Cambio Ltd.).
(§10) Mesophilic reverse transcriptases (AMV RT; MuLV RT; SAV RT and HIV RT all from APBiotech) were assayed in their respective buffers with a final enzyme concentration of 4 units/μl.
as §5, §6, §7

[4] = system: Retrotherm reverse transcriptase; experiment: Thermostable polymerase under reverse transcription conditions, Retroth.; design: key to result of incorporation (termination / further chain extension): T: Incorporation results in termination; E: Incorporation permits further chain extension; T/E: Predominant product is primer extended by one base, but evidence of some further extension also observed; key to primer extended by at least one base within assay time (grade): −: No extension within assay time; +/−: up to 25% of primer extended by at least one base within assay time; +: up to 50% of primer extended by at least one base within assay time; ++: up to 75% of primer extended by at least one base within assay time; +++: essentially all primer extended by at least one base within assay time; conditions: RNA template, 2.5 mM Manganese ions; for primer extended by at least one base within assay time (grade): Tth reaction buffer
Experimental: as §1, §2, §3, §4, §9, §5, §6, §7

[5] = target: T2, HIV RT (Human immunodeficiency virus type 1 group M subtype B, UniProt P03366); experiment: Mesophilic reverse transcriptase reaction, HIV RT; design: key to result of incorporation (termination / further chain extension): T: Incorporation results in termination; E: Incorporation permits further chain extension; T/E: Predominant product is primer extended by one base, but evidence of some further extension also observed; key to primer extended by at least one base within assay time (grade): −: No extension within assay time; +/−: up to 25% of primer extended by at least one base within assay time; +: up to 50% of primer extended by at least one base within assay time; ++: up to 75% of primer extended by at least one base within assay time; +++: essentially all primer extended by at least one base within assay time; conditions: RNA template, final enzyme concentration of 4 units/μl
T2 construct: AMV RT; MuLV RT; SAV RT and HIV RT all from APBiotech; purchased APBiotech
Experimental: as §1, §2, §3, §8, §9, §10, §5, §6, §7

Molecule	result of incorporation (termination / further chain extension) [1]	primer extended by at least one base within assay time (grade) [1]	result of incorporation (termination / further chain extension) [2]	primer extended by at least one base within assay time (grade) [2]	primer extended by at least one base within assay time (grade) [3]	result of incorporation (termination / further chain extension) [3]	result of incorporation (termination / further chain extension) [4]	primer extended by at least one base within assay time (grade) [4]	primer extended by at least one base within assay time (grade) [5]	result of incorporation (termination / further chain extension) [5]
4′-C-(Aminomethyl)thymidine triphosphate [compound (9)]	T	+/− (up to 25% of primer extended by at least one base within assay time)	T	++ (up to 75% of primer extended by at least one base within assay time)	++ (up to 75% of primer extended by at least one base within assay time)	E	E	+++	+++	E
Cc1cn([C@H]2C[C@H](O)[C@@](CNC(=O)C(F)(F)F)(COP(=O)(O)OP(=O)(O)OP(=O)(O)O)O2)c(=O)[nH]c1=O [compound (8), 4′-C-(N-trifluoroacetylaminomethyl)thymidine triphosphate]	T	+/− (up to 25% of primer extended by at least one base within assay time)	T	++ (up to 75% of primer extended by at least one base within assay time)	++ (up to 75% of primer extended by at least one base within assay time)	E	E	++ (up to 75% of primer extended by at least one base within assay time)	+++	E
4′-C-(Glycylaminomethyl)thymidine triphosphate [compound (6)]	T	+/− (up to 25% of primer extended by at least one base within assay time)	T	++ (up to 75% of primer extended by at least one base within assay time)	++ (up to 75% of primer extended by at least one base within assay time)	E	E	++ (up to 75% of primer extended by at least one base within assay time)	+++	E
